In patent US20250236608A1, “EGFR INHIBITORS” (Blueprint Medicines Corporation, priority 2022, published 2025):

Columns and labels:
[1] = target: pEGFR (Tyr1068) in PC-9 cells (Ex19Del) (Homo sapiens (Human), UniProt P00533, DEL746-750); test: PC-9 pEGFR AlphaLISA assay; type: cell-based; settings: 4 hours incubation, p-EGFR (Tyr1068) AlphaLISA, read-out: Ext pEGFR_PC-9 Ex19Del IC50
Method in brief: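 Phospho-EGFR (Tyr1068) was quantified by AlphaLISA SureFire Ultra in lysates of PC-9 cells exposed for 4 h to compound (4-fold, 10-point dilutions).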

EGFR (d746-750) = EGFR (d746-750) (Homo sapiens (Human), UniProt P00533, DEL746-750); test: Biochemical EGFR inhibition assay, EGFR (d746-750); settings: Caliper mobility shift; 1.0 mM ATP or ATP Km; read-out: Enz EGFR_Exon19-del746-750 IC50
EGFR L858R = EGFR L858R (Homo sapiens (Human), UniProt P00533, L858R); test: Biochemical EGFR inhibition assay, EGFR L858R; settings: Caliper mobility shift; 1.0 mM ATP or ATP Km; read-out: Enz EGFR_L858R IC50
Chain of EGFR L858R (P00533 25-1210 L858R): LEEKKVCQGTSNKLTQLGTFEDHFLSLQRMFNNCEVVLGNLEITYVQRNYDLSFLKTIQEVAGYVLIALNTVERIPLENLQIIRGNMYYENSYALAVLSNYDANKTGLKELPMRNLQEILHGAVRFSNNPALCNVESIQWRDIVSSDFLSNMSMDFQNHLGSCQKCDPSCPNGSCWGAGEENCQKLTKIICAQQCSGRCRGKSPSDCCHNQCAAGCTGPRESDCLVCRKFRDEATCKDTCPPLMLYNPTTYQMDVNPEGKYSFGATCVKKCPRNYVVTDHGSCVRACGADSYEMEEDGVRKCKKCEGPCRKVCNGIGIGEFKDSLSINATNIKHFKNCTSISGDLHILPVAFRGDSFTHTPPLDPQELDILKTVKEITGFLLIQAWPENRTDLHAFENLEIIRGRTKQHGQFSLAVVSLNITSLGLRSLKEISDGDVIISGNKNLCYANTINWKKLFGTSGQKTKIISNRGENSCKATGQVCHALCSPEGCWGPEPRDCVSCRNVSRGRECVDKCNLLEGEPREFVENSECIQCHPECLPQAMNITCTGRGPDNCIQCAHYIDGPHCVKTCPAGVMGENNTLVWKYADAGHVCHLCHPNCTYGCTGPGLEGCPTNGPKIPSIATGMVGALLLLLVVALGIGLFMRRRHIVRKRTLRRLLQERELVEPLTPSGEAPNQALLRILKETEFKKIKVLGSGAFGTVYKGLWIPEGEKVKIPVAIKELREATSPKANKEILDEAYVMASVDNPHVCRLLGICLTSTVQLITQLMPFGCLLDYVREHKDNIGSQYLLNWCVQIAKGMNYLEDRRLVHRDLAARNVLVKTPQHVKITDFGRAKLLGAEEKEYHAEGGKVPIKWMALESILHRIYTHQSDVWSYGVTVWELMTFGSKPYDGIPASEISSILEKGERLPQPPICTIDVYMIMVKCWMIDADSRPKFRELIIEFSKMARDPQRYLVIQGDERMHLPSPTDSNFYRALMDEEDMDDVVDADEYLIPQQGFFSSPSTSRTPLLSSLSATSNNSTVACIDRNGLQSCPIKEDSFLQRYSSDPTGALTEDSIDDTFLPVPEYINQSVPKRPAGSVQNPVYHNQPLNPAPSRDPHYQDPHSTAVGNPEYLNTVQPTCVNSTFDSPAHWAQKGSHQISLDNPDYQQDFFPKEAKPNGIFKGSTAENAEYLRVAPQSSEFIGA

Chain of pEGFR (Tyr1068) in PC-9 cells (Ex19Del) (P00533 other isoform, or with tags, fused parts or gaps del 746-750): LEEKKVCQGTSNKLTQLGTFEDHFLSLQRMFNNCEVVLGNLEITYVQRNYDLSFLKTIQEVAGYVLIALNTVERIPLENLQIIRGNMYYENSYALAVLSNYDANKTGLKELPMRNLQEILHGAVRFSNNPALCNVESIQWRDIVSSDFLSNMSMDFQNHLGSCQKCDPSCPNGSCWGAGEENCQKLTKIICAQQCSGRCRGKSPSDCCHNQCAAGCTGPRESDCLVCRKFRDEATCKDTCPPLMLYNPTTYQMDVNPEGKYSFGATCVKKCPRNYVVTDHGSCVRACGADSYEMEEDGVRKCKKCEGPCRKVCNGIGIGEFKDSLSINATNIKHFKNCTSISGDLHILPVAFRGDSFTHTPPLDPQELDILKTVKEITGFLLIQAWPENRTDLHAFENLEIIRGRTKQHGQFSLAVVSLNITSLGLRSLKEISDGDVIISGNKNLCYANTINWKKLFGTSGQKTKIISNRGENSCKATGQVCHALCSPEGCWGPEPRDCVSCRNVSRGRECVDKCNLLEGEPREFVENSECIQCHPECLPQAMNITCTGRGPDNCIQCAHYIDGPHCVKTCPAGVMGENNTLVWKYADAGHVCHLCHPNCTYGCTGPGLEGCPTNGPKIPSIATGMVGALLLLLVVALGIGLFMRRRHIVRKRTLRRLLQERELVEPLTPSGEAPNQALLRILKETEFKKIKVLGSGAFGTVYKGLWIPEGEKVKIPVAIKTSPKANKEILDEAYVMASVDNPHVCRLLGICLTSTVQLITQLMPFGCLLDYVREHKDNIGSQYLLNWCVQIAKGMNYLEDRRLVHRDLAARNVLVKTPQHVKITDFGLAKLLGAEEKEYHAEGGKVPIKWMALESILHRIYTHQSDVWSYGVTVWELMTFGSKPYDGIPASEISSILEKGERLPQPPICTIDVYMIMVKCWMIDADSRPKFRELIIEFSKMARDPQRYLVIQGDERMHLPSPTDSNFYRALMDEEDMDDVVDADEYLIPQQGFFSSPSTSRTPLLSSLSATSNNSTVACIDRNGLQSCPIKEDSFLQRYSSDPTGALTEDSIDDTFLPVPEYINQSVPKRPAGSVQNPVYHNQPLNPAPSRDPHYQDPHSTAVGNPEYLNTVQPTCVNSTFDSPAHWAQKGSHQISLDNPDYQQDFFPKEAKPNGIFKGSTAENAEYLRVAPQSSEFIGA
Chain of EGFR (d746-750) (P00533 other isoform, or with tags, fused parts or gaps del 1-694/del 746-750 limits assumed): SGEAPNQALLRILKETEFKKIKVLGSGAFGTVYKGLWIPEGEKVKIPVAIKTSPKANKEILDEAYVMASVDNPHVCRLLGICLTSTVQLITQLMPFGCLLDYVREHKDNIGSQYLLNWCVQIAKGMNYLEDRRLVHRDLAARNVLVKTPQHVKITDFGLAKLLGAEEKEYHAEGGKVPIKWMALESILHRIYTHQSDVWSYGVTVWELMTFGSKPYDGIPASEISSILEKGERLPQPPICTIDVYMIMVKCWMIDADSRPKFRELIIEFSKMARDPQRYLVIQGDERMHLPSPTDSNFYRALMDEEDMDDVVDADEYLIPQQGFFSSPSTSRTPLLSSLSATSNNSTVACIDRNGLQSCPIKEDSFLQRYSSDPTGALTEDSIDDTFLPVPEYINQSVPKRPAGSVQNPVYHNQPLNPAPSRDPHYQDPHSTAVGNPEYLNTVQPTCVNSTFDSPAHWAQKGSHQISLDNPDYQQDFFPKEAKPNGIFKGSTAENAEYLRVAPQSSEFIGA

| Structure (SMILES) | IC50 [1] | IC50 (EGFR (d746-750)) | IC50 (EGFR L858R) |
| --- | --- | --- | --- |
| COc1cc2ncnc(-c3cn(C4CC4)nc3-c3ccccc3)c2nc1NC(=O)[C@@]12C[C@@H]1CN(C)C2 (single isomer, unassigned) [Example 406, (1S,5S)—N-(4-(1-cyclopropyl-3-phenyl-1H-pyrazol-4-yl)-7-methoxypyrido[3,2-d]pyrimidin-6-yl)-3-methyl-3-azabicyclo[3.1.0]hexane-1-carboxamide or (1R,5R)—N-(4-(1-cyclopropyl-3-phenyl-1H-pyrazol-4-yl)-7-methoxypyrido[3,2-d]pyrimidin-6-yl)-3-methyl-3-azabicyclo[3.1.0]hexane-1-carboxamide] | 0.9 nM | 0.7 nM | 1.2 nM |
| CCc1cc2ncnc(-c3cn(C)nc3-c3ccccc3)c2nc1NC(=O)C12COCC1C2 (stereo not drawn) [Example 452, N-(7-ethyl-4-(1-methyl-3-phenyl-1H-pyrazol-4-yl)pyrido[3,2-d]pyrimidin-6-yl)-3-oxabicyclo[3.1.0]hexane-1-carboxamide] | 14.8 nM | 5.3 nM | 28.9 nM |
| COc1cc2ncnc(-c3cn(CC(F)F)nc3-c3ccccc3)c2nc1NC(=O)[C@]12C[C@H]1CN(C)C2 (single isomer, unassigned) [Example 396, (1R,5R)—N-(4-(1-(2,2-difluoroethyl)-3-phenyl-1H-pyrazol-4-yl)-7-methoxypyrido[3,2-d]pyrimidin-6-yl)-3-methyl-3-azabicyclo[3.1.0]hexane-1-carboxamide or (1S,5S)—N-(4-(1-(2,2-difluoroethyl)-3-phenyl-1H-pyrazol-4-yl)-7-methoxypyrido[3,2-d]pyrimidin-6-yl)-3-methyl-3-azabicyclo[3.1.0]hexane-1-carboxamide] | 0.5 nM | 1.1 nM | 1.7 nM |
| COc1cc2ncnc(-c3cn(C)nc3-c3ccccc3)c2nc1O[C@@H](C)c1nnc(C)o1 [Example 37, (S)-2-(1-((7-methoxy-4-(1-methyl-3-phenyl-1H-pyrazol-4-yl)pyrido[3,2-d]pyrimidin-6-yl)oxy)ethyl)-5-methyl-1,3,4-oxadiazole] | 4.6 nM | 2 nM | 5.3 nM |
| COc1cc2ncnc(-c3cn(C)nc3-c3ccccc3)c2nc1NC(=O)c1cn(C(F)(F)F)nc1C [Example 428, N-(7-methoxy-4-(1-methyl-3-phenyl-1H-pyrazol-4-yl)pyrido[3,2-d]pyrimidin-6-yl)-3-methyl-1-(trifluoromethyl)-1H-pyrazole-4-carboxamide] | 7.7 nM | 1.2 nM | 3.9 nM |
| CCOc1cc2ncnc(-c3cn(C)nc3-c3ccccc3)c2cc1NC(=O)[C@@]12C[C@@H]1CN(C)C2 (single isomer, unassigned) [Example 256, (1S,5S)—N-(7-ethoxy-4-(1-methyl-3-phenyl-1H-pyrazol-4-yl)quinazolin-6-yl)-3-methyl-3-azabicyclo[3.1.0]hexane-1-carboxamide or (1R,5R)—N-(7-ethoxy-4-(1-methyl-3-phenyl-1H-pyrazol-4-yl)quinazolin-6-yl)-3-methyl-3-azabicyclo[3.1.0]hexane-1-carboxamide] | 2 nM | 0.4 nM | 0.8 nM |
| COc1cc2ncnc(-c3cn(C)nc3-c3ccc(F)cc3)c2cc1NC(=O)c1cn(C)nc1C [Example 305, N-(4-(3-(4-fluorophenyl)-1-methyl-1H-pyrazol-4-yl)-7-methoxyquinazolin-6-yl)-1,3-dimethyl-1H-pyrazole-4-carboxamide] | 3.5 nM | 3.3 nM | 5.1 nM |
| COc1cc2ncnc(-c3cn(C)nc3-c3ccccc3)c2cc1OC(=O)N1[C@@H](C)CNC[C@@H]1C [Example 88, 7-methoxy-4-(1-methyl-3-phenyl-1H-pyrazol-4-yl)quinazolin-6-yl (2S,6S)-2,6-dimethylpiperazine-1-carboxylate] | 7.5 nM | 1.9 nM | 3.2 nM |
| COc1cc2ncnc(-c3cn(C)nc3-c3ccccc3)c2cc1OC(=O)N1CCOC[C@H]1C [Example 61, 7-methoxy-4-(1-methyl-3-phenyl-1H-pyrazol-4-yl)quinazolin-6-yl (R)-3-methylmorpholine-4-carboxylate] | 7.9 nM | 2.3 nM | 4.5 nM |
| COc1cc2ncnc(-c3cn(CC(F)F)nc3-c3ccccc3)c2cc1NC(=O)[C@@]12COC[C@@H]1C2 [Example 276, (1R,5R)—N-(4-(1-(2,2-difluoroethyl)-3-phenyl-1H-pyrazol-4-yl)-7-methoxyquinazolin-6-yl)-3-oxabicyclo[3.1.0]hexane-1-carboxamide] | 1.3 nM | 1.6 nM | 2 nM |
| COc1cc2ncnc(-c3cn(C)nc3-c3ccccc3)c2cc1N1CCC[C@H](O)C1 [Example 164, (S)-1-(7-methoxy-4-(1-methyl-3-phenyl-1H-pyrazol-4-yl)quinazolin-6-yl) piperidin-3-ol] | 6.4 nM | 1.7 nM | 2.9 nM |
| COc1cc2ncnc(-c3cn(CC(F)F)nc3-c3ccccc3)c2nc1NC(=O)[C@H]1CCN1C [Example 391, (R)—N-(4-(1-(2,2-difluoroethyl)-3-phenyl-1H-pyrazol-4-yl)-7-methoxypyrido[3,2-d]pyrimidin-6-yl)-1-methylazetidine-2-carboxamide] | 0.7 nM | 1.3 nM | 2.5 nM |
| COc1cc2ncnc(-c3cn(CC(F)F)nc3-c3ccccc3)c2cc1NC(=O)C(F)F [Example 269, N-(4-(1-(2,2-difluoroethyl)-3-phenyl-1H-pyrazol-4-yl)-7-methoxyquinazolin-6-yl)-2,2-difluoroacetamide] | 0.9 nM | 0.9 nM | 1.3 nM |
| COc1cc2ncnc(-c3cn(C)nc3-c3ccccc3)c2cc1NC(=O)c1ccncc1Cl [Example 190, 3-chloro-N-(7-methoxy-4-(1-methyl-3-phenyl-1H-pyrazol-4-yl)quinazolin-6-yl)isonicotinamide] | 1.5 nM | 0.8 nM | 1.1 nM |
| COc1cc2ncnc(-c3cn(C)nc3-c3ccccc3)c2cc1O[C@H]1CCN(C)C[C@@H]1F [Example 2, 6-(((3S,4S)-3-fluoro-1-methylpiperidin-4-yl)oxy)-7-methoxy-4-(1-methyl-3-phenyl-1H-pyrazol-4-yl)quinazoline] | 4.9 nM | 1.9 nM | 4.3 nM |
| Cn1cc(-c2ncnc3cc(OC(F)F)c(NC(=O)C4CC4)cc23)c(-c2ccccc2)n1 [Example 279, N-(7-(difluoromethoxy)-4-(1-methyl-3-phenyl-1H-pyrazol-4-yl)quinazolin-6-yl)cyclopropanecarboxamide] | 6.5 nM | 1.8 nM | 3.3 nM |
| CCC(=O)Nc1cc2c(-c3cnn(C4CCOCC4)c3-c3ccccc3)ncnc2cc1OC [Example 498] | 589 nM | 349 nM | 306 nM |
| COc1cc2ncnc(-c3cn(C)nc3-c3ccccc3)c2nc1NC(=O)[C@]1(C(F)(F)F)CCN(C)C1 (single isomer, unassigned) [Example 395, (S)—N-(7-methoxy-4-(1-methyl-3-phenyl-1H-pyrazol-4-yl)pyrido[3,2-d]pyrimidin-6-yl)-1-methyl-3-(trifluoromethyl) pyrrolidine-3-carboxamide or (R)—N-(7-methoxy-4-(1-methyl-3-phenyl-1H-pyrazol-4-yl)pyrido[3,2-d]pyrimidin-6-yl)-1-methyl-3-(trifluoromethyl) pyrrolidine-3-carboxamide] | 5.3 nM | 1.2 nM | 3.1 nM |
